We go through 24 compounds from patent US11524968B2, “Heterocyclic compound as a protein kinase inhibitor” (HK inno.N Corporation, priority 2017, dated 2022).

In general, IC50 refers to the midpoint of a concentration-inhibition curve.

A value given as a limit tells only on which side of the number the result lay.

Chain of JAK1 (P23458 whole entry): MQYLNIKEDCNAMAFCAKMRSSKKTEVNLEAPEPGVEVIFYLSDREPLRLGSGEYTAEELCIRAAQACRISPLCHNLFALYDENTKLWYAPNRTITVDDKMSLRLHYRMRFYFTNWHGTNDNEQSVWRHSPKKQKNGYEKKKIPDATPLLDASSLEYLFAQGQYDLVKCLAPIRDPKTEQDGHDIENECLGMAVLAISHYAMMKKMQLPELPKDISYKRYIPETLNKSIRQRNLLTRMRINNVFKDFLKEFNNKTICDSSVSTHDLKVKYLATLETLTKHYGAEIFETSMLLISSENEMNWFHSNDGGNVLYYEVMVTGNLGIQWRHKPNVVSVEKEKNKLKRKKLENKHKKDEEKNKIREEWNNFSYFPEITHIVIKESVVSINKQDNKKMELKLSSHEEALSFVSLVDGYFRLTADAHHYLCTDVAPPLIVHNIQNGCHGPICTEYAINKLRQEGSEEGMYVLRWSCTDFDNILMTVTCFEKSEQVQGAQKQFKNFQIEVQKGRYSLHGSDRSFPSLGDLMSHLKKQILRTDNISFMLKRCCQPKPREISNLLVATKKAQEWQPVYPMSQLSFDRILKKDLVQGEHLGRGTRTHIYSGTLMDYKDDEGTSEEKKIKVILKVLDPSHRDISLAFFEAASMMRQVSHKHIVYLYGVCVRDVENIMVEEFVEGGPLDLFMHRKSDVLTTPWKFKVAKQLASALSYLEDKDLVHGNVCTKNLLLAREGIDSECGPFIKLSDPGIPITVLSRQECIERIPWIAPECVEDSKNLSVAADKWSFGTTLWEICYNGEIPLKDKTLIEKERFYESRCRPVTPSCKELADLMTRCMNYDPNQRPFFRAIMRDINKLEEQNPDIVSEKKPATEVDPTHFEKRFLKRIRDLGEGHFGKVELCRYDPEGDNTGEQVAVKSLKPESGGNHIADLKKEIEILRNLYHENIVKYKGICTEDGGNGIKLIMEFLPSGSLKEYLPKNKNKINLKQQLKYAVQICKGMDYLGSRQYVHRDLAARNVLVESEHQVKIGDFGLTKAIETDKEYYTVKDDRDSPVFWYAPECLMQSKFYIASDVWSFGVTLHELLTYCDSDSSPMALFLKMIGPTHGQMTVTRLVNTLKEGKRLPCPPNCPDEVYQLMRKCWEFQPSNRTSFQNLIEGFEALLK

The assay deals with JAK1 (Homo sapiens (Human), UniProt P23458). Briefly: Analysis of JAK1 activity inhibition ability (ADP-Glo Kinase Assay). The format is biochemical. To be noted: JAK1 enzyme, ADP-Glo luminescence, ATP 250 uM, IRS-itide substrate, 30° C. 40 minutes; read-out: IC50. The procedure:
Test Example 1: Analysis of JAK1 Activity Inhibition Ability of Compound of Formula 1 (ADP-Glo™ Kinase Assay)
A JAK inhibition ability of a compound according to the present invention was identified as follows.
A control material and a test material were prepared for each concentration, in such a way that they were diluted by means of DMSO. At the same time, ATP (250 uM) and JAK substrate (JAK1, IRS-itide 40 ng/mL) were prepared, in such a way that they were diluted by means of kinase buffer (40 mM Tris-HCl pH 7.5, 20 mM MgCl2, 0.5 mg/mL BSA, 50 uM DTT).
A test drug for each concentration, substrate, ATP and JAK enzyme were mixed in an eppendorf tube, and reacted in a 30° C. incubator for 40 minutes.
ADP-Glo™ reagent contained in ADP-Glo™ Kinase Enzyme System (Promega, USA, V9571) was added into each eppendorf tube, and reacted in a 30° C. incubator for 40 minutes. A kinase detection reagent contained in ADP-Go™ Kinase Enzyme System was inserted into the eppendorf tube, then an integration time was set to 1 second by using Wallac Victor 2™, then luminescence was measured, and then JAKs phosphorylation inhibition ability of the test material was analyzed. The concentration of the compound, which causes 50% of the JAK enzyme activity inhibition in comparison With the control group, was determined as IC50 (nM) of an inhibitor, wherein the results thereof are shown in a following table 1.
Background: In ADP-Glo the light output rises with the ADP produced.
As for `O=C(Nc1cc(N2CCN(Cc3ccns3)CC2)c2cc[nH]c2n1)C1CC1` [Example 698, N-(4-(4-(isothiazol-5-ylmethyl)piperazin-1-yl)-1H-pyrrolo[2,3-b]pyridin-6-yl)cyclopropanecarboxamide], the IC50 was in the range of 20 to 200 nM.

As to `Cn1cncc1S(=O)(=O)Nc1ccc(-c2cc(NC(=O)C3CC3)nc3[nH]ccc23)cc1` [Example 15, N-(4-(4-((1-methyl-1H-imidazole)-5-sulfonamido)phenyl)-1H-pyrrolo[2,3-b]pyridin-6-yl)cyclopropanecarboxamide], the IC50 lay in the range of 20 to 200 nM.

`CCCS(=O)(=O)Nc1ccc(-c2cc(NC(=O)C3CC3)nc3[nH]ccc23)cc1CC` [Example 126, N-(4-(3-ethyl-4-(propylsulfonamido)phenyl)-1H-pyrrolo[2,3-b]pyridin-6-yl)cyclopropanecarboxamide]: the 50% inhibitory concentration (IC50) is below 20 nM.

For the compound `CCc1cc(NS(=O)(=O)C2CCCCC2)ccc1-c1cc(NC(=O)C2CC2)nc2[nH]ccc12` [Example 112, N-(4-(4-(cyclohexanesulfonamido)-2-ethylphenyl)-1H-pyrrolo[2,3-b]pyridin-6-yl)cyclopropanecarboxamide], the half-maximal inhibitory concentration (IC50) fell in the range of 20 to 200 nM.

Regarding `CCN(CC)S(=O)(=O)Nc1ccc(-c2cc(NC(=O)C3CC3)nc3[nH]ccc23)cc1` [Example 216, N-(4-(4-((N,N-diethylsulfamoyl)amino)phenyl)-1H-pyrrolo[2,3-b]pyridin-6-yl)cyclopropanecarboxamide], the concentration for half-maximal inhibition (IC50) lay within 20 to 200 nM.

Regarding `O=C(Nc1cc(C2=CCC(NC3CN(C(=O)c4cc(F)cc(F)c4)C3)CC2)c2cc[nH]c2n1)C1CC1` (stereo not drawn) [Example 495, N-(4-(4-((1-(3,5-difluorobenzoyl)azetidin-3-yl)amino)cyclohex-1-en-1-yl)-1H-pyrrolo[2,3-b]pyridin-6-yl)cyclopropanecarboxamide], the half-maximal inhibitory concentration (IC50) was 20 to 200 nM.

Turning to `O=C(Nc1cc(C2=CCC(NS(=O)(=O)N3CCOCC3)CC2)c2cc[nH]c2n1)C1CC1` (stereo not drawn) [Example 231, N-(4-(4-(morpholine-4-sulfonamido)cyclohex-1-en-1-yl)-1H-pyrrolo[2,3-b]pyridin-6-yl)cyclopropanecarboxamide], the half-inhibitory concentration (IC50) is below 20 nM.

In the case of `CCCS(=O)(=O)Nc1ccc(-c2nc(NC(=O)C3CC3)nc3[nH]ccc23)cc1` [Example 190, N-(4-(4-(propylsulfonamido)phenyl)-7H-pyrrolo[2,3-d]pyrimidin-2-yl)cyclopropanecarboxamide], the IC50 was below 20 nM.

For the compound `Cc1cc(C(=O)NCC(F)(F)F)ccc1-c1cc(NC(=O)C2CC2)nc2[nH]ccc12` [Example 525, 4-(6-(cyclopropanecarboxamido)-1H-pyrrolo[2,3-b]pyridin-4-yl)-3-methyl-N-(2,2,2-trifluoroethyl)benzamide], the half-inhibitory concentration (IC50) lay in the range of 20 to 200 nM.

As for `CCc1cc(NS(=O)(=O)CC2(C#N)CC2)ccc1-c1cc(NC(=O)C2CC2)[n+]([O-])c2[nH]ccc12` [Example 137, 4-(4-(((1-cyanocyclopropyl)methyl)sulfonamido)-2-ethylphenyl)-6-(cyclopropanecarboxamido)-1H-pyrrolo[2,3-b]pyridine 7-oxide], the IC50 was below 20 nM.

Regarding `N#CCC(=O)N1CC=C(c2cc(NC(=O)C3CC3)nc3[nH]ccc23)CC1` [Example 250, N-(4-(1-(2-cyanoacetyl)-1,2,3,6-tetrahydropyridin-4-yl)-1H-pyrrolo[2,3-b]pyridin-6-yl)cyclopropanecarboxamide], the half-inhibitory concentration (IC50) was below 20 nM.

Consider `O=C(Nc1cc(-c2ccc(CNC3CCS(=O)(=O)C3)cc2)c2cc[nH]c2n1)C1CC1` (stereo not drawn) [Example 595, N-(4-(4-(((1,1-dioxidotetrahydrothiophen-3-yl)amino)methyl)phenyl)-1H-pyrrolo[2,3-b]pyridin-6-yl)cyclopropanecarboxamide], for which the IC50 is 20 to 200 nM.

For `N#CCC1(CS(=O)(=O)Nc2ccc(-c3cc(NC(=O)C4CC4)nc4[nH]ccc34)cc2F)CC1` [Example 86, N-(4-(4-(((1-(cyanomethyl)cyclopropyl)methyl)sulfonamido)-3-fluorophenyl)-1H-pyrrolo[2,3-b]pyridin-6-yl)cyclopropanecarboxamide], the IC50 was below 20 nM.

Turning to `CC1CN(C(=O)c2cncc(Br)c2)CC=C1c1cc(NC(=O)C2CC2)nc2[nH]ccc12` (stereo not drawn) [Example 324, N-(4-(1-(5-bromonicotinoyl)-3-methyl-1,2,3,6-tetrahydropyridin-4-yl)-1H-pyrrolo[2,3-b]pyridin-6-yl)cyclopropanecarboxamide], the half-maximal inhibitory concentration (IC50) was 20 to 200 nM.

In the case of `CC1CN(S(=O)(=O)Nc2ccc(-c3cc(NC(=O)C4CC4)nc4[nH]ccc34)cc2)CC(C)O1` (stereo not drawn) [Example 220, N-(4-(4-((2,6-dimethylmorpholine)-4-sulfonamido)phenyl)-1H-pyrrolo[2,3-b]pyridin-6-yl)cyclopropanecarboxamide], the IC50 lay within 20 to 200 nM.

Take `N#CCCCS(=O)(=O)N1CC=C(c2cc(NC(=O)C3CC3)nc3[nH]ccc23)CC1` [Example 170, N-(4-(1-((3-cyanopropyl)sulfonyl)-1,2,3,6-tetrahydropyridin-4-yl)-1H-pyrrolo[2,3-b]pyridin-6-yl)cyclopropanecarboxamide]: the IC50 is 20 to 200 nM.

As for `O=C(Nc1cc(C2=CCN(Cc3ccns3)CC2)c2cc[nH]c2n1)C1CC1` [Example 488, N-(4-(1-(isothiazol-5-ylmethyl)-1,2,3,6-tetrahydropyridin-4-yl)-1H-pyrrolo[2,3-b]pyridin-6-yl)cyclopropanecarboxamide], the IC50 was below 20 nM.

On to `CC(C)S(=O)(=O)Oc1ccc(-c2cc(NC(=O)C3CC3)nc3[nH]ccc23)cc1` [Example 633, 4-(6-(cyclopropanecarboxamido)-1H-pyrrolo[2,3-b]pyridin-4-yl)phenyl propane-2-sulfonate], for which the IC50 lay in the range of 20 to 200 nM.

Consider `CN(C)CC(=O)N1CC=C(c2cc(NC(=O)C3CC3)nc3[nH]ccc23)CC1` [Example 281, N-(4-(1-(dimethylglycyl)-1,2,3,6-tetrahydropyridin-4-yl)-1H-pyrrolo[2,3-b]pyridin-6-yl)cyclopropanecarboxamide], for which the half-inhibitory concentration (IC50) is above 200 nM.

Regarding `O=C(Nc1nc(-c2ccc(CNc3ccc(F)cc3)cc2)c2nc[nH]c2n1)C1CC1` [Example 597, N-(6-(4-(((4-fluorophenyl)amino)methyl)phenyl)-9H-purin-2-yl)cyclopropanecarboxamide], the concentration for half-maximal inhibition (IC50) was above 200 nM.

As to `CC1CN(C(=O)c2ccnc(O)c2)CC=C1c1cc(NC(=O)C2CC2)nc2[nH]ccc12` (stereo not drawn) [Example 383, N-(4-(1-(2-hydroxyisonicotinoyl)-3-methyl-1,2,3,6-tetrahydropyridin-4-yl)-1H-pyrrolo[2,3-b]pyridin-6-yl)cyclopropanecarboxamide], the IC50 was above 200 nM.

Take `N#CCC(=O)c1ccc(-c2cc(NC(=O)C3CC3)nc3[nH]ccc23)cc1` [Example 519, N-(4-(4-(2-cyanoacetyl)phenyl)-1H-pyrrolo[2,3-b]pyridin-6-yl)cyclopropanecarboxamide]: the IC50 is above 200 nM.

On to `CCCCS(=O)(=O)Nc1ccc(-c2cc(NC(=O)C3CC3)nc3[nH]ccc23)cc1CC` [Example 127, N-(4-(4-(butylsulfonamido)-3-ethylphenyl)-1H-pyrrolo[2,3-b]pyridin-6-yl)cyclopropanecarboxamide], for which the IC50 was 20 to 200 nM.

Turning to `N#CC1CN(C(=O)Cc2ccc(-c3cc(NC(=O)C4CC4)nc4[nH]ccc34)cc2)C1` [Example 568, N-(4-(4-(2-(3-cyanoazetidin-1-yl)-2-oxoethyl)phenyl)-1H-pyrrolo[2,3-b]pyridin-6-yl)cyclopropanecarboxamide], the IC50 is 20 to 200 nM.
